Results: patent US6946253B2, “Herpes zinc finger motifs” (University Court of the University of Glasgow, priority 2000, dated 2005)

Key:
HSV-2 = test: Plaque reduction assay in BHK21/C13 cells; type: cell-based, herpes simplex virus type 2; settings: HSV-2, plaque reduction assay
Procedure: Plaque reduction assay. Confluent monolayers (4×10^6 cells) of BHK21/C13 cells were preincubated with the appropriate drug concentration, 0.1% DMSO(v/v) or mock treated as a control for 24 h and subsequently infected at a moi of 400 pfu/plate with either HSV-1 or HSV-2 and incubated for 48 h at 37° C. […] Tests of each drug concentration were performed in triplicate and the average of the 3 plates calculated. […]
(§1) Plaquing Efficiency in the Presence of ADA and DIBA. To determine if the reduction in virus yield seen in the previous experiment was due to a virucidal effect, inhibition of virus entry (adsorption penetration) or intracellular replication, a plaque reduction assay was carried out. Here, the ability of the virus to plaque was measured. An effect on the stability of the virus particle or virus entry would lead to a reduction in the number of plaques compared to the control untreated plates for a given amount of virus. In contrast, an effect on intracellular virus replication would not lead to a significant reduction in plaques.

[1] = tested on: herpes simplex virus type 1 (HSV-1) strain 17; test: Virus replication (virus yield) in BHK21/C13 cells; type: cell-based; settings: moi 5, 24 h pi
Procedure: (§2) Virus replication. Semi-confluent monolayers of BHK21/C13 cells (2×10^6) were pre-incubated with the appropriate drug concentration, 0.1% DMSO (v/v) or mock treated as a control for 24 h and subsequently infected at a multiplicity of infection (moi) of 5 plaque forming units (pfu)/cell with either herpes simplex virus type 1 (HSV-1) strain 17 or HSV-2 strain HG52 and harvested 24 h post-infection (pi). The virus yield was determined by releasing the virus into the supernatant by sonication and titration on BHK21/C13 cells. Results were expressed as pfu/10^6 cells and % reduction in yield as compared to the untreated control (23).
(§3) Antiviral effect of ADA and DIBA. Two experiments were carried out. In the first, the effect of varying concentrations of ADA and DIBA on the replication of HSV-1 was analysed. In the second, the effect on both HSV-1 and HSV-2 was determined.

[2] = tested on: baby hamster kidney BHK21/C13 cells; test: Cytotoxicity, Trypan Blue exclusion staining; type: cell-based; settings: 100 μM (highest concentration), up to 4 days
Procedure: Cytotoxicity. Both compounds azodicarbonamide (ADA, NSC 674447) and 2,2′,-dithiobisbenzamide (DIBA, NSC 654077) were dissolved at the appropriate concentration in 0.1% (v/v) dimethylsulphoxide (DMSO) in Eagle's modified medium. Confluent monolayers (2×10^6) of baby hamster kidney BHK21/C13 cells were incubated with various concentrations of either ADA or DIBA (1,10,100 μM) or as a control 0.1% (v/v) DMSO, and cell viability determined every day for 4 days by Trypan Blue exclusion staining (23).
Determination or cytotoxicity of ADA and DIBA. In view of the distinctive sequence conservation of the IE63 zinc finger two previously known zinc-ejecting anti-HIV-1 compounds, 2,2′-dithiobisbenzamide (DIBA) and azodicarbonamide (ADA) were tested for their effect on herpesvirus. To separate any effect on cell viability from a specific effect on virus replication, the effect of incubating BHK21/C13 cells in various concentrations of ADA, DIBA, and 0.1% (v/v) DMSO as a control, for up to 4 days was determined. Even at the highest concentration used (100 μM) 95% of the cells were viable compared to untreated BHK21/C13 cells (data not shown). Indeed any cytotoxicity observed was due to the DMSO in which the drugs were dissolved, as the cytotoxicity was equally great in those cells incubated with only DMSO (data not shown).

HSV-1 = test: Plaque reduction assay in BHK21/C13 cells; type: cell-based, herpes simplex virus type 1; settings: HSV-1, plaque reduction assay
Procedure: Plaque reduction assay. Confluent monolayers (4×10^6 cells) of BHK21/C13 cells were preincubated with the appropriate drug concentration, 0.1% DMSO(v/v) or mock treated as a control for 24 h and subsequently infected at a moi of 400 pfu/plate with either HSV-1 or HSV-2 and incubated for 48 h at 37° C. […] Tests of each drug concentration were performed in triplicate and the average of the 3 plates calculated. Results were expressed as pfu/plate and % of the number of plaques on the untreated control plates (23).
as §1

HSV-2 strain HG52 = test: Virus replication (virus yield) in BHK21/C13 cells; type: cell-based, herpes simplex virus type 2; settings: experiment 2 (Table 2), moi 5, 24 h pi
Procedure: as §2, §3

[3] = experiment 1 (Table 1), HSV-1, 1 μM
[4] = experiment 1 (Table 1), HSV-1, 10 μM
[5] = experiment 1 (Table 1), HSV-1, 100 μM
[6] = experiment 2 (Table 2), HSV-1, 1 μM
[7] = experiment 2 (Table 2), HSV-1, 10 μM
[8] = experiment 2 (Table 2), HSV-1, 100 μM

| SMILES | size of the plaques (HSV-2) | % UNTREATED CONTROL (virus yield) [1, 3] | VIRUS YIELD (pfu/10^6 BHK cells) [1, 3] | VIRUS YIELD (pfu/BHK cell) [1, 3] | % UNTREATED CONTROL (virus yield) [1, 4] | VIRUS YIELD (pfu/10^6 BHK cells) [1, 4] | VIRUS YIELD (pfu/BHK cell) [1, 4] | % UNTREATED CONTROL (virus yield) [1, 5] | VIRUS YIELD (pfu/10^6 BHK cells) [1, 5] | VIRUS YIELD (pfu/BHK cell) [1, 5] | % UNTREATED CONTROL (virus yield) [1, 6] | VIRUS YIELD (pfu/10^6 BHK cells) [1, 6] | VIRUS YIELD (pfu/BHK cell) [1, 6] | % UNTREATED CONTROL (virus yield) [1, 7] | VIRUS YIELD (pfu/10^6 BHK cells) [1, 7] | VIRUS YIELD (pfu/BHK cell) [1, 7] | VIRUS YIELD (pfu/10^6 BHK cells) [1, 8] | VIRUS YIELD (pfu/BHK cell) [1, 8] | cells viable compared to untreated BHK21/C13 cells [2] | size of the plaques (HSV-1) | other results |
| --- | --- | --- | --- | --- | --- | --- | --- | --- | --- | --- | --- | --- | --- | --- | --- | --- | --- | --- | --- | --- | --- |
| NC(=O)c1ccccc1SSc1ccccc1C(N)=O [DIBA, 2,2′-dithiobisbenzamide] | reduction in the size of the plaques | 85% | 6.8 × 10^8 pfu/10^6 BHK cells | 680 pfu/BHK cell | 20% | 1.6 × 10^8 pfu/10^6 BHK cells | 160 pfu/BHK cell | 2.5% | 2 × 10^7 pfu/10^6 BHK cells | 20 pfu/BHK cell | 20% | 1.2 × 10^8 pfu/10^6 BHK cells | 120 pfu/BHK cell | 1.6% | 9.6 × 10^6 pfu/10^6 BHK cells | 9.6 pfu/BHK cell | 1.9 × 10^6 pfu/10^6 BHK cells | 1.9 pfu/BHK cell | 95% | reduction in the size of the plaques | % UNTREATED CONTROL (virus yield) (HSV-2 strain HG52; HSV-2, 1 μM): 17%; VIRUS YIELD (pfu/10^6 BHK cells) (HSV-2 strain HG52; HSV-2, 1 μM): 1.2 × 10^7 pfu/10^6 BHK cells; VIRUS YIELD (pfu/BHK cell) (HSV-2 strain HG52; HSV-2, 1 μM): 12 pfu/BHK cell; % UNTREATED CONTROL (virus yield) (HSV-2 strain HG52; HSV-2, 10 μM): 2%; VIRUS YIELD (pfu/10^6 BHK cells) (HSV-2 strain HG52; HSV-2, 10 μM): 1.4 × 10^6 pfu/10^6 BHK cells; VIRUS YIELD (pfu/BHK cell) (HSV-2 strain HG52; HSV-2, 10 μM): 1.4 pfu/BHK cell; VIRUS YIELD (pfu/10^6 BHK cells) (HSV-2 strain HG52; HSV-2, 100 μM): 3.1 × 10^5 pfu/10^6 BHK cells; VIRUS YIELD (pfu/BHK cell) (HSV-2 strain HG52; HSV-2, 100 μM): 0.31 pfu/BHK cell |
| NC(=O)N=NC(N)=O [ADA, azodicarbonamide] | reduction in the size of the plaques | 76% | 6.1 × 10^8 pfu/10^6 BHK cells | 610 pfu/BHK cell | 19% | 1.5 × 10^8 pfu/10^6 BHK cells | 150 pfu/BHK cell | 11% | 9 × 10^6 pfu/10^6 BHK cells | 9.0 pfu/BHK cell | 15% | 9.3 × 10^7 pfu/10^6 BHK cells | 93 pfu/BHK cell | 1.4% | 8.5 × 10^6 pfu/10^6 BHK cells | 8.5 pfu/BHK cell | 1.2 × 10^6 pfu/10^6 BHK cells | 1.2 pfu/BHK cell | 95% | reduction in the size of the plaques | % UNTREATED CONTROL (virus yield) (HSV-2 strain HG52; HSV-2, 1 μM): 13%; VIRUS YIELD (pfu/10^6 BHK cells) (HSV-2 strain HG52; HSV-2, 1 μM): 9.4 × 10^6 pfu/10^6 BHK cells; VIRUS YIELD (pfu/BHK cell) (HSV-2 strain HG52; HSV-2, 1 μM): 9.4 pfu/BHK cell; % UNTREATED CONTROL (virus yield) (HSV-2 strain HG52; HSV-2, 10 μM): 1.2%; VIRUS YIELD (pfu/10^6 BHK cells) (HSV-2 strain HG52; HSV-2, 10 μM): 8.5 × 10^5 pfu/10^6 BHK cells; VIRUS YIELD (pfu/BHK cell) (HSV-2 strain HG52; HSV-2, 10 μM): 0.85 pfu/BHK cell; VIRUS YIELD (pfu/10^6 BHK cells) (HSV-2 strain HG52; HSV-2, 100 μM): 2.3 × 10^5 pfu/10^6 BHK cells; VIRUS YIELD (pfu/BHK cell) (HSV-2 strain HG52; HSV-2, 100 μM): 0.23 pfu/BHK cell |
